According to publication PMC4312176 (Chemical communications (Cambridge, England), 2015):

What was measured:
[1] = target: T1, Plasmodium falciparum 1-deoxy-D-xylulose 5-phosphate reductoisomerase (PfDxr) (Plasmodium falciparum, UniProt Q8IKG4); assay: inhibition of purified recombinant PfDxr, NADPH consumption assay; type: biochemical
T1 sequence (Q8IKG4 73-488): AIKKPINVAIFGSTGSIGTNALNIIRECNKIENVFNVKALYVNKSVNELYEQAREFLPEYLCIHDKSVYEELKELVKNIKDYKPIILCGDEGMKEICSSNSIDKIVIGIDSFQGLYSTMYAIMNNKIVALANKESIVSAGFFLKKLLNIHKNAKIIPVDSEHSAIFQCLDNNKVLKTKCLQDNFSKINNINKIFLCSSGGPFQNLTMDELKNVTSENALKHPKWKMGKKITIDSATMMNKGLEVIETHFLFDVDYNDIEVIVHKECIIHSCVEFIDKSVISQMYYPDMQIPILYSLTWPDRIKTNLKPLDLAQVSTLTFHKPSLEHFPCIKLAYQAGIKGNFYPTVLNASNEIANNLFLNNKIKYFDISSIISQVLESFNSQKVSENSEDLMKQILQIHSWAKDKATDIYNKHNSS

[2] = target: T1, Plasmodium falciparum 1-deoxy-D-xylulose 5-phosphate reductoisomerase (PfDxr); assay: co-crystal structure; type: biochemical

CCC(=O)N(O)CCCP(=O)(O)O [FR-900098P]
Ki [1]: 0.92 ± 0.19 nM

CC(=O)N(O)CCCP(=O)(O)O [FR-900098]
Ki [2]: 3.7 ± 0.9 nM
